We go through ten compounds from patent US8277777B2, “Compound having affinity for amyloid” (Nihon Medi-Physics Co., Ltd., priority 2006, dated 2012).

For series [1], the target named is T1, amyloid (aggregated Aβ1-40) (Homo sapiens, UniProt P05067).
T1 construct: purchased Peptide Institute, INC
Kind of series: in vitro amyloid binding test (inhibition of [125I]3′-I-BTA-0 binding). As to conditions: [125I]3′-I-BTA-0 400 pmol/L, amyloid 1 μmol/L, 0.1% BSA phosphate buffer pH 7.4, 22°C, 3 hours. The procedure:
The resulting samples were placed in each well (about 0.3 mL in volume) of a 96-well microplate.
The measured radioactivity level was defined as the background radioactivity level, and used in the calculation of the inhibition ratio (hereinafter referred to as BG).
(9) Using the radioactivity levels measured above in (7) and (8), the inhibition ratio was determined by the following formula (1).
A graph in which values converted by probit transformation from the obtained inhibition ratios were plotted relative to logarithms of concentrations of compounds for evaluation was prepared to obtain an approximate straight line by the least square method. Using the line, the concentration of each compound for evaluation was determined, at which the radioactivity level is half of the level of the sample free from each compound for evaluation, and was defined as a 50% inhibition concentration of each compound (hereinafter referred to as IC50% value).

Series [2] has as its system Salmonella typhimurium TA98. Kind of series: reverse mutation test (Ames test), TA98. The series is classed as cell-based. The procedure:
(§1) In order to examine mutagenicity of Compound 1, Compound 2 and Compound 3, reverse mutation test using Salmonella typhimurium TA98 and TA100 (hereinafter referred to as Ames test) was conducted.
(§2) The test was conducted without addition of S9mix and with addition of S9mix. Dimethylsulfoxide was used as a negative control. A positive control was 2-(2-furyl)-3-(5-nitro-2-furyl)acrylamide in case S9mix was not added, and 2-aminoanthracene in case S9 mix was added.
(§3) The amount of each sample to be added to the test plate was 7 dosages (geometric ratio 4) with the maximum dose being 1250 μg/plate for Compound 1, and 7 dosages (geometric ratio 3) with the maximum dose being […] for Compound 2 and Compound 3. After a sample to be examined and a strain (TA98 or TA100), or a sample to be examined, S9mix and the strain were mixed together, the mixture was multilayered using soft agar on a medium of a test plate, and then incubated at 37° C. for 48 hours.
(In general: The Ames test uses bacterial strains that need an amino acid and regain growth without it when mutated back.)

Series [3] has as its system Salmonella typhimurium TA100. Kind of series: reverse mutation test (Ames test), TA100. The series is classed as cell-based. The procedure: as §1, §2, §3
Series [4] relates to Salmonella typhimurium TA98 and TA100. Kind of series: Ames test, overall judgment. The series is classed as cell-based. To be noted: regardless of addition of S9mix. The procedure:
as §1, §2, §3

Series [5] can be described thus: partition coefficient based on HPLC. Type of series: physicochemical. To be noted: mobile phase 50 mM triethylamine phosphate (pH 7.2)/acetonitrile=40/60, formula (4). As for the experimental part:
The partition coefficient by HPLC (hereinafter referred to as log PHPLC) was measured by the following method.
First, compounds for evaluation shown in Table 5 were dissolved at a concentration of 1 mg/mL in methanol containing 10% dimethylsulfoxide to prepare sample solutions. One μL of the sample solution was subjected to HPLC analysis under the following conditions to determine the elution time (tO) of the solvent and the elution time (tR) of each compound.
Column: Prodigy ODS (3) (product name; manufactured by phenomenex; size: 4.6×250 mm)
Mobile phase: a mixed solution of 50 mM triethylamine phosphate (pH 7.2)/acetonitrile=40/60
Detector: ultraviolet visible absorptiometer (detection wavelength: 282 nm)
Using the obtained tO and tR, the retention factor (hereinafter referred to as K′HPLC value) of each compound for evaluation was determined according to the calculation formula (3). K′HPLC=(tR−t0)/t0 (3) […]
Using K′HPLC obtained for each compound for evaluation, the log PHPLC value of each compound for evaluation was determined according to the above calculation formula (4).

The conditions of series [6]: [125I]-labeled, normal mice, cited from earlier work; for transfer into brain: 2 minutes after administration.
In another series the test system is amyloid. As to conditions: [125I]-labeled; cited from earlier work.
For series [7] the following is noted: [11C]-labeled, rats; cited from earlier work.
Series [8] is described as follows: partition coefficient based on the octanol extraction method. Type of series: physicochemical. To be noted: octanol / 10 mmol/L phosphate buffer (pH 7.4), radioactivity. As for the experimental part:
Partition coefficients based on the octanol extraction method (hereinafter referred to as log Poctanol) were measured, which are generally used as an indicator of permeability of compounds through the blood-brain barrier (hereinafter referred to as BBB).
To 2 mL of octanol, 10 μL of a solution containing Compound 4 (Example 5) and 2 mL of a 10 mmol/L phosphate buffer (pH 7.4) were added and stirred for 30 seconds. After the mixture was centrifuged (2000 rpm×60 min.) with a low-speed centrifuge (model: […] CT4D manufactured by Hitachi Koki Co., Ltd.), the octanol layer and the water layer were sampled each in an amount of 1 mL, and subjected to measurement of radioactivity with an autowell gamma system (manufactured by Aloka, Type: ARC-301B). Using the obtained radioactivity, log Poctanol was calculated in accordance with the equation (2).

Series [9] in a line: transferability into brain and clearance. To be noted: rats, intravenous injection. As for the experimental part:
Using Compound 4, a time course change of radioactive accumulation in brain of male Wistar rats (7-week old) was measured.
The rats were sacrificed by bleeding from abdominal artery, and brains were removed and subjected to measurement of radioactivity (hereinafter referred to as A in this Example) with an autowell gamma system (Type: ARC-301B manufactured by Aloka Co., Ltd.) and further subjected to measurement of mass of brains 2, 5, 30 and 60 minutes after the injection. Also, radioactivity (hereinafter referred to as B in this Example) of 0.05 mL of a 1000-fold diluted solution of the injected solution was measured in the same manner as above. Using these measurement results, radioactive distributions per unit weight of brain (% ID/g) at the respective time points were calculated in accordance with the following formula (5). Three animals were used for experiment at the respective time points.

The mark [10] stands for this setting: TA98, without addition of S9mix.
The mark [11] stands for this setting: TA100, without addition of S9mix.

Where two headings read alike, the source gives them in different places. Some results are limits rather than exact numbers.

T1 sequence (P05067 672-711 limits assumed): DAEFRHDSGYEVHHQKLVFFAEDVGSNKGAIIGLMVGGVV

For `COc1ccc2nc(-c3ccc(OCCCF)cc3)cn2c1` [Compound 1, 2-[4′-(3″-fluoropropoxy)phenyl]-6-methoxyimidazo[1,2-a]pyridine], in series [1], the IC50 is 1.1 nM. For the same compound, the Mutagenicity result is recorded as “Negative” in series [2] (TA98, with addition of S9mix); “Negative” in series [2] (setting [10]); “Negative” in series [3] (TA100, with addition of S9mix); “Negative” in series [3] (setting [11]). Besides, the Ames test judgment entry in series [4] is on record as “negative”.
Compound `Oc1ccc2nc(-c3ccc(OCCCF)cc3)cn2c1` [Compound 2, 2-[4′-(3″-fluoropropoxy)phenyl]-6-hydroxyimidazo[1,2-a]pyridine] had an IC50 in series [1] of 30.5 nM. For the same compound, the Mutagenicity entry in series [2] (TA98, with addition of S9mix) is “Negative”; in [2] (setting [10]) it was “Negative”; in series [3] (TA100, with addition of S9mix) it was “Negative”; in [3] (setting [11]), “Negative”. Besides, in [4], the Ames test judgment entry is “negative”.
The compound `FCCCOc1ccc(-c2cn3ccccc3n2)cc1` [Compound 3, 2-[4′-(3″-fluoropropoxy)phenyl]imidazo[1,2-a]pyridine] displayed an IC50 in series [1] of 36.6 nM. Further, in series [5] (read-out: logPHPLC value), the chromatographic logP was 1.7. Moreover, the Mutagenicity entry in series [2] (TA98, with addition of S9mix) is “Negative”; in series [2] (setting [10]), “Negative”; in series [3] (TA100, with addition of S9mix), “Negative”; in [3] (setting [11]), “Negative”. For the same compound, the Ames test judgment entry in series [4] is on record as “negative”.
On to `Nc1c(/N=N/c2ccc(-c3ccc(/N=N/c4cc(S(=O)(=O)O)c5ccccc5c4N)cc3)cc2)cc(S(=O)(=O)O)c2ccccc12` [Congo Red, reference compound], for which, in series [1], the IC50 was more than 1000 nM.
Consider `CN(C)c1ccc(-c2nc3ccc(I)cc3o2)cc1` [IBOX, 6-iodo-2-[4′-(N,N-dimethylamino)phenyl]benzoxazole], for which, in series [6], the transfer into brain result was “transferred into brain” and the “clearance from normal tissues” value was “insufficient in clearance from normal tissues”.
Take `CN(C)c1ccc(-c2cn3cc(I)ccc3n2)cc1` [IMPY, 6-iodo-2-[4′-(N,N-dimethylamino)phenyl]imidazo[1,2-a]pyridine]: in series [5], the logPHPLC value was 2.1. Besides, in the series with amyloid, the “clearance from normal tissues” value was “rapid clearance from normal tissues”; the “transfer to brain and accumulation at amyloid after administration” value was “transferring to brain and accumulating at amyloid”.
Turning to `CNc1ccc(/C=C/c2ccc(O)cc2)cc1` [SB-13, (E)-4-methylamino-4′-hydroxystilbene], the “clearance from normal tissues” value in [7] is on record as “it cannot be said that the clearance is sufficiently fast”.
`CN(C)c1ccc(-c2nc3ccc(I)cc3s2)cc1` [TZDM, 6-iodo-2-[4′-(N,N-dimethylamino)phenyl]benzothiazole]: in series [6], the transfer into brain result was “transferred into brain” and the “clearance from normal tissues” value is given as “insufficient in clearance from normal tissues”.
Regarding `CN(C)c1ccc(-c2cn3cc([123I])ccc3n2)cc1` [[^123I]-IMPY, reference compound], the logPoctanol value in [8] was 2.1. The “Radioactive concentration per unit weight in brain” value in series [9] (after 2 min.) was found to be 1.02 % ID/g; in series [9] (after 5 min.), 0.99 % ID/g; in series [9] (after 30 min.) it was 0.20 % ID/g; in series [9] (after 60 min.), 0.08 % ID/g.
`CN(C)c1ccc(/C=C/c2ccc(I)cc2)cc1` [m-I-SB, (E)-4-dimethylamino-4′-iodostilbene]: in series [6], the transfer into brain result is “transferred into brain” and the “clearance from normal tissues” value was “insufficient in clearance from normal tissues”.

As a reminder, the IC50 is the concentration needed to halve the response being measured. Low readings indicate greater potency, high ones weaker potency.
